Test results taken from paper PMC11279566, “Novel Coumarin–Nucleobase Hybrids with Potential Anticancer Activity: Synthesis, In Vitro Cell-Based Evaluation, and Molecular Docking” (Pharmaceuticals, 2024).
Like-named read-outs stand apart in the source and are kept apart here.

How the values were obtained:
[1] = tested on: human acute T lymphoblastic leukemia cell lines (MOLT-3); set-up: method as in PMID 25078311; settings: antiproliferative activity, read-out: IC50 against MOLT3 cell line; cited from earlier work
[2] = tested on: human prostate cancer cell line (DU145); set-up: method as in PMID 23124212; settings: read-out: IC50 against DU145 cell line; cited from earlier work
[3] = tested on: human lung carcinoma cells (A549); experiment: colorimetric MTT cytotoxicity assay, A549; assay type: cell-based; settings: for IC50: Homo sapiens, MTT, n = 3, compounds as HP-β-CD inclusion complex
Procedure: (§1) The potential antitumor activity of eight new hybrids was evaluated through colorimetric microculture MTT assay against three tumor cell lines: human colon carcinoma cells (HCT116), human laryngeal tumor cells (Hep-2), and human lung carcinoma cells (A549). The hybridized compounds were also assayed against the non-tumor cell line HaCat (human keratinocyte) in order to obtain an indication of their selective cytotoxicity. Also, the commercial anticancer drug doxorubicin was employed as a positive drug standard to compare the cytotoxicity activities. Each experiment was carried out in triplicate on three different days. The selectivity index (SI) was calculated as the ratio between the IC50 (concentration that reduces cell viability by 50%) of HaCat (non-tumor line) and the IC50 of the tumor lines.
(§2) A total of 1 mL of an ethanolic solution containing compounds 7a,b, 8a,b, 9a,b, or 10a,b (0.004 mol L^−1) was vigorously stirred with 1 mL of an aqueous solution of HP-β-CD (0.004 mol L^−1). The resulting mixture was kept under stirring until a clear solution was obtained. The final solution was concentrated under a vacuum to remove the solvent, and the remaining water was removed by lyophilization to give a water-soluble compound of the HP-β-CD complex in a powder form. The stock solutions of the compounds were prepared by dissolving the complexed compounds in 200 µL of DMSO, followed by dissolving in 1800 µL of Dulbecco’s Modified Eagle Medium (DMEM). The stock solution and dilutions were prepared prior to the cytotoxicity assays.
(§3) The human colon carcinoma (HCT116), human laryngeal tumor (Hep-2), and human lung carcinoma (A549) cell lines, and the non-tumor human keratinocyte cell line (HaCat) were purchased from Rio de Janeiro Cell Bank. The cells were maintained in DMEM supplemented with […]; Life Technologies, Carlsbad, CA, USA) and 1% penicillin–streptomycin in a humidified 5% CO2 atmosphere at 37 °C.
(§4) Cytotoxicity was assayed through the colorimetric microculture MTT assay. Cell suspensions were plated in 96-well plates in triplicate at an initial density of 7 × 10^4 cells mL^−1 and incubated at 37 °C for 24 h. After the incubation, the cells were treated with various concentrations of the evaluated compounds (7a,b, 8a,b, 9a,b, or 10a,b) and incubated for 24 and 48 h. After the treatment, the medium was removed, and an MTT solution (0.4 mg mL^−1) was added to each well and further incubated for 2 h at 37 °C. Then, DMSO (100 µL) was added for the solubilization of the formazan crystals, and the absorbance intensities were measured in a microplate reader (SpectraMax M2e, Molecular Devices, Sunnyvale, CA, USA) at 570 nm. The percentage of viable cells was calculated in relation to the control to determine the cytotoxic concentration that reduces 50% of the cell viability (IC50).

[4] = tested on: HaCat (human keratinocyte); experiment: colorimetric MTT cytotoxicity assay, non-tumor HaCat; assay type: cell-based; settings: for IC50: Homo sapiens, HaCat non-tumor line, MTT, n = 3, compounds as HP-β-CD inclusion complex
Procedure: as §1, §2, §3, §4

[5] = tested on: human colon carcinoma cells (HCT116); experiment: colorimetric MTT cytotoxicity assay, HCT116; assay type: cell-based; settings: for IC50: Homo sapiens, HCT-116, MTT, n = 3, compounds as HP-β-CD inclusion complex; for Selectivity Index HCT116 24 h: IC50 of HaCat / IC50 of HCT116, 24 h; for Selectivity Index HCT116 48 h: IC50 of HaCat / IC50 of HCT116, 48 h
Procedure: as §1, §2, §3, §4

[6] = tested on: human laryngeal tumor cells (Hep-2); experiment: colorimetric MTT cytotoxicity assay, Hep-2; assay type: cell-based; settings: for IC50: Homo sapiens, MTT, n = 3, compounds as HP-β-CD inclusion complex; for Selectivity Index Hep-2 24 h: IC50 of HaCat / IC50 of Hep-2, 24 h
Procedure: as §1, §2, §3, §4

[7] = A549, 24 h, read-out: IC50 (µM ± SD) A549 24 h
[8] = A549, 48 h, read-out: IC50 (µM ± SD) A549 48 h
[9] = 24 h, read-out: IC50 (µM ± SD) HaCat 24 h
[10] = 48 h, read-out: IC50 (µM ± SD) HaCat 48 h
[11] = HCT116, 24 h, read-out: IC50 (µM ± SD) HCT116 24 h
[12] = HCT116, 48 h, read-out: IC50 (µM ± SD) HCT116 48 h
[13] = Hep-2, 24 h, read-out: IC50 (µM ± SD) Hep-2 24 h
[14] = Hep-2, 48 h, read-out: IC50 (µM ± SD) Hep-2 48 h

COc1cccc(/C=C/C(=O)c2cccc(-n3cc(COc4cc(=O)oc5ccccc45)nn3)c2)c1OC [A]
IC50 [1]: 0.53 µM

O=C1C(=O)N(CCCn2cc(Cn3ccc(=O)n(Cc4cn(CCCN5C(=O)C(=O)c6ccc(Cl)cc65)nn4)c3=O)nn2)c2cc(Cl)ccc21 [B]
IC50 [2]: 13.9 µM

O=c1ccn(Cc2cn(Cc3cc(=O)oc4cc(O)cc(O)c34)nn2)c(=O)[nH]1 [Compound 7a, 1-((1-((5,7-Dihydroxy-2-oxo-2H-chromen-4-yl)methyl)-1H-1,2,3-triazol-4-yl)methyl) Pyrimidine-2,4(1H,3H)-dione]
IC50 [3, 7]: > 100 µM | IC50 [3, 8]: > 100 µM | IC50 [4, 9]: > 100 µM | IC50 [4, 10]: > 100 µM | IC50 [5, 11]: > 100 µM | IC50 [5, 12]: > 100 µM | IC50 [6, 13]: > 100 µM | IC50 [6, 14]: > 100 µM | melting point: 230 °C (dec.)

Cc1cn(Cc2cn(Cc3cc(=O)oc4cc(O)cc(O)c34)nn2)c(=O)[nH]c1=O [Compound 7b, 1-((1-((5,7-Dihydroxy-2-oxo-2H-chromen-4-yl)methyl)-1H-1,2,3-triazol-4-yl)methyl)-5-methylpyrimidine-2,4(1H,3H)-dione]
IC50 [3, 7]: > 100 µM | IC50 [3, 8]: > 100 µM | IC50 [4, 9]: > 100 µM | IC50 [4, 10]: > 100 µM | IC50 [5, 11]: > 100 µM | IC50 [5, 12]: > 100 µM | IC50 [6, 13]: > 100 µM | IC50 [6, 14]: > 100 µM | melting point: 285 °C (dec.)

O=c1ccn(Cc2cn(Cc3cc(=O)oc4c3ccc3ccccc34)nn2)c(=O)[nH]1 [Compound 8a, 1-((1-((2-Oxo-2H-benzo[h]chromen-4-yl)methyl)-1H-1,2,3-triazol-4-yl)methyl) Pyrimidine-2,4(1H,3H)-dione]
IC50 [3, 7]: > 100 µM | IC50 [3, 8]: > 100 µM | IC50 [4, 9]: > 100 µM | IC50 [4, 10]: > 100 µM | IC50 [5, 11]: > 100 µM | IC50 [5, 12]: > 100 µM | IC50 [6, 13]: > 100 µM | IC50 [6, 14]: > 100 µM | melting point: 235 °C (dec.)

Cc1cn(Cc2cn(Cc3cc(=O)oc4c3ccc3ccccc34)nn2)c(=O)[nH]c1=O [Compound 8b, 1-((1-((2-Oxo-2H-benzo[h]chromen-4-yl)methyl)-1H-1,2,3-triazol-4-yl)methyl)-5-methylpyrimidine-2,4(1H,3H)-dione]
IC50 [3, 7]: > 100 µM | IC50 [3, 8]: > 100 µM | IC50 [4, 9]: 454.1 ± 2.67 µM | IC50 [4, 10]: > 100 µM | IC50 [5, 11]: 87.6 ± 1.94 µM | IC50 [5, 12]: > 100 µM | Selectivity Index HCT116 24 h [5]: 5 | IC50 [6, 13]: > 100 µM | IC50 [6, 14]: > 100 µM | melting point: 270 to 272 °C

O=c1cc(Cn2cc(Cn3ccc(=O)n(Cc4cn(Cc5cc(=O)oc6cc(O)cc(O)c56)nn4)c3=O)nn2)c2c(O)cc(O)cc2o1 [Compound 9a, 1,3-Bis((1-((5,7-dihydroxy-2-oxo-2H-chromen-4-yl)methyl)-1H-1,2,3-triazol-4-yl)methyl)pyrimidine-2,4(1H,3H)-dione]
cytotoxicity effect against A549 cells (in words) ([3]; 24 and 48 h treatments): No cytotoxicity effect was observed | IC50 [3, 7]: > 100 µM | IC50 [3, 8]: > 100 µM | IC50 [4, 9]: 634.9 ± 2.8 µM | IC50 [4, 10]: 142 ± 2.15 µM | cytotoxicity against the non-tumor cells HaCat (in words) ([4]; highest evaluated concentration 100 μM, all exposure times): did not exhibit appreciable cytotoxicity | activity compared to doxorubicin (fold) ([5]; HCT116 cell line, IC50 relative to doxorubicin): approximately 20 fold | IC50 [5, 11]: 69.2 ± 1.85 µM | IC50 [5, 12]: 24.2 ± 1.39 µM | Selectivity Index HCT116 48 h [5]: 6 | IC50 [6, 13]: 51.6 ± 1.71 µM | IC50 [6, 14]: > 100 µM | Selectivity Index Hep-2 24 h [6]: 12 | melting point: 302 °C (dec.)

O=c1cc(Cn2cc(Cn3ccc(=O)n(Cc4cn(Cc5cc(=O)oc6c5ccc5ccccc56)nn4)c3=O)nn2)c2ccc3ccccc3c2o1 [Compound 9b, 1,3-Bis((1-((2-oxo-2H-benzo[h]chromen-4-yl)methyl)-1H-1,2,3-triazol-4-yl)methyl)pyrimidine-2,4(1H,3H)-dione]
IC50 [3, 7]: > 100 µM | IC50 [3, 8]: 51 ± 1.71 µM | Selectivity Index A549 48 h ([3]; IC50 of HaCat / IC50 of A549, 48 h): 63 | IC50 [4, 9]: 1049 ± 3.02 µM | IC50 [4, 10]: 3228 ± 3.5 µM | IC50 [5, 11]: 54.5 ± 1.74 µM | IC50 [5, 12]: 59.2 ± 1.77 µM | Selectivity Index HCT116 24 h [5]: 19 | Selectivity Index HCT116 48 h [5]: 55 | cytotoxicity for Hep-2 cells (in words) [6]: No appreciative cytotoxicity was observed | IC50 [6, 13]: > 100 µM | IC50 [6, 14]: > 100 µM | melting point: 193 to 195 °C

Cn1cnc2c1c(=O)n(Cc1cn(Cc3cc(=O)oc4cc(O)cc(O)c34)nn1)c(=O)n2C [Compound 10a, 1-((1-((5,7-Dihydroxy-2-oxo-2H-chromen-4-yl)methyl)-1H-1,2,3-triazol-4-yl)methyl)-3,7-dimethyl-3,7-dihydro-1H-purine-2,6-dione]
IC50 [3, 7]: > 100 µM | IC50 [3, 8]: > 100 µM | IC50 [4, 9]: 307.8 ± 2.49 µM | IC50 [4, 10]: > 100 µM | IC50 [5, 11]: 78.3 ± 1.89 µM | IC50 [5, 12]: > 100 µM | Selectivity Index HCT116 24 h [5]: 4 | IC50 [6, 13]: 56.6 ± 1.75 µM | IC50 [6, 14]: > 100 µM | Selectivity Index Hep-2 24 h [6]: 5 | melting point: 315 °C (dec.)

Cn1cnc2c1c(=O)n(Cc1cn(Cc3cc(=O)oc4c3ccc3ccccc34)nn1)c(=O)n2C [Compound 10b, 3,7-Dimethyl-1-((1-((2-oxo-2H-benzo[h]chromen-4-yl)methyl)-1H-1,2,3-triazol-4-yl)methyl)-3,7-dihydro-1H-purine-2,6-dione]
IC50 [3, 7]: > 100 µM | IC50 [3, 8]: > 100 µM | IC50 [4, 9]: 263.3 ± 2.42 µM | IC50 [4, 10]: 120 ± 2.08 µM | IC50 [5, 11]: 41 ± 1.61 µM | IC50 [5, 12]: 84.7 ± 1.92 µM | Selectivity Index HCT116 24 h [5]: 6 | IC50 [6, 13]: > 100 µM | IC50 [6, 14]: > 100 µM | melting point: 288 to 290 °C

COc1cccc2c1C(=O)c1c(O)c3c(c(O)c1C2=O)C[C@@](O)(C(=O)CO)C[C@@H]3O[C@H]1C[C@H](N)[C@H](O)[C@H](C)O1 [Doxorubicin, doxorubicin, reference compound]
IC50 [4, 10]: 39.3 ± 1.59 µM | IC50 [5, 12]: 1.23 ± 0.05 µM | IC50 [6, 14]: 1.69 ± 0.15 µM
